Data: ChEMBL document CHEMBL5052853, “Isoxazole derivatives targeting tacc3 as anticancer agents” (2021)
Calls of active or inactive are those of the source. The calls are words filed in the database; no cut-off is given here.

What was measured:
CAL-51 = assay: Antiproliferative activity against human CAL-51 cells; type: functional, cell-based
JIMT-1 [1] = assay: Antitumor activity in human JIMT-1 cells xenografted female nude mouse at 5 mg/kg, po administered every other day; type: functional, organism-based
[2] = Toxicity in human JIMT-1 cells xenografted female nude mouse assessed as effect on body weight at 2 mg/kg, iv administered once every 2 weeks; type: organism-based; details: in vivo, 336 h
JIMT-1 [3] = assay: Antitumor activity in human JIMT-1 cells xenografted female nude mouse at 2 mg/kg, iv administered once every 2 weeks; type: functional, organism-based
[4] = Toxicity in female nude mouse assessed as body weight at 100 mg/kg, po after 1 day of administration; type: organism-based; details: in vivo, 24 h
HCC1954 = assay: Antiproliferative activity against human HCC1954 cells; type: functional, cell-based
[5] = Toxicity in human HCT-116 cells xenografted immunocompromised female nude mouse assessed as effect on body weight at 25 to 50 mg/kg, po administered daily; type: organism-based; details: in vivo, dose 25-50 mg/kg
[6] = Toxicity in female nude mouse assessed as body weight at 100 mg/kg, po after 6 days of administration; type: organism-based; details: in vivo, 144 h, time 6 day
JIMT-1 [7] = assay: Induction of DNA damage in human JIMT-1 cells at 200 nM assessed as change in p-H2AX levels in presence of Mps1 inhibitor TC Mps1 and measured by Western blot analysis; type: functional, cell-based
JIMT-1 [8] = assay: Stabilization of human TACC3 expressed in JIMT-1 cells at 1 uM incubated for 6 hrs by cellular thermal shift assay; type: cell-based
JIMT-1 [9] = assay: Induction of apoptosis in human JIMT-1 cells at 200 nM assessed as change in cleaved PARP levels in presence of Mps1 inhibitor TC Mps1 and measured by Western blot analysis; type: functional, cell-based
[10] = Toxicity in mouse CT26 cells xenografted syngeneic immunocompetent Balb/c mouse assessed as effect on body weight at 25 to 50 mg/kg, po administered daily; type: organism-based; details: in vivo, dose 25-50 mg/kg
JIMT-1 [11] = assay: Induction of mitotic arrest in human JIMT-1 cells assessed as increased localization of spindle assembly checkpoint marker BuBR1 to chromosomes at 500 nM measured by immunofluorescence staining method; type: functional, cell-based
JIMT-1 [12] = assay: Antiproliferative activity against human JIMT-1 cells after 72 hrs by SRB assay; type: functional, cell-based; details: JIMT-1, 72 h
RT-4 = assay: Antiproliferative activity against human RT-4 cells after 3 days by SRB assay; type: functional, cell-based; details: RT-4, 72 h
[13] = Toxicity in human JIMT-1 cells xenografted female nude mouse assessed as effect on body weight at 2 mg/kg, po administered every other day; type: organism-based; details: in vivo
[14] = Toxicity in female nude mouse assessed as body weight at 500 mg/kg, po administered once and measured after 1 day of administration; type: organism-based; details: in vivo, 24 h
MDA-MB-231 = assay: Antiproliferative activity against human MDA-MB-231 cells; type: functional, cell-based
JIMT-1 [15] = assay: Induction of mitotic arrest in human JIMT-1 cells assessed as change in p-histone H3 levels and measured by Western blot analysis; type: functional, cell-based; details: dose 0.1-5 µM
[16] = Kinetic solubility in sodium phosphate buffer at pH 7.4 at 25 degree C after 2 hrs; type: physicochemical; details: read-out: Kinetic_solubility
HCT-116 = assay: Antitumor activity in human HCT-116 cells xenografted immunocompromised female nude mouse at 25 to 50 mg/kg, po administered daily; type: functional, organism-based; details: dose 25-50 mg/kg
[17] = Toxicity in human JIMT-1 cells xenografted female nude mouse assessed as effect on body weight at 5 mg/kg, po administered every other day; type: organism-based; details: in vivo
JIMT-1 [18] = assay: Induction of apoptosis in human JIMT-1 cells assessed as change in cleaved caspase-3 levels and measured by Western blot analysis; type: functional, cell-based; details: dose 0.1-5 µM
[19] = Plasma protein binding in human assessed as unbound fraction; type: ADME, cell-free
HCC1143 = assay: Antiproliferative activity against human HCC1143 cells; type: functional, cell-based
CT26 = assay: Antitumor activity in mouse CT26 cells xenografted syngeneic immunocompetent Balb/c mouse at 25 to 50 mg/kg, po administered daily; type: functional, organism-based; details: dose 25-50 mg/kg
JIMT-1 [20] = assay: Induction of DNA damage in human JIMT-1 cells assessed as change in p-H2AX levels and measured by Western blot analysis; type: functional, cell-based; details: dose 0.1-5 µM
[21] = Toxicity in female nude mouse assessed as body weight at 100 mg/kg, po after 5 days of administration; type: organism-based; details: in vivo, 120 h, time 5 day
[22] = Toxicity in mouse EMt6 cells xenografted syngeneic Balb/c mouse assessed as effect on body weight; details: in vivo
JIMT-1 [23] = assay: Antitumor activity in human JIMT-1 cells xenografted female nude mouse at 25 mg/kg, po administered for 23 days; type: functional, organism-based; details: time 23.0 day
JIMT-1 [24] = assay: Antitumor activity in human JIMT-1 cells xenografted female immunodeficient nude mouse at 5 mg/kg, po administered every other day for 30 days; type: functional, organism-based; details: time 30.0 day
JIMT-1 [25] = assay: Induction of apoptosis in human JIMT-1 cells assessed as increase in apoptotic cells at 500 nM measured by Annexin-V and PI staining method (reference value: 4.1 +/- 0.3 %); type: functional
JIMT-1 [26] = assay: Stabilization of human TACC3 expressed in JIMT-1 cells at 10 uM incubated for 20 mins and measured in presence of pronase by drug affinity responsive target stability assay; type: cell-based
JIMT-1 [27] = assay: Induction of apoptosis in human JIMT-1 cells assessed as change in cleaved PARP levels and measured by Western blot analysis; type: functional, cell-based; details: dose 0.1-5 µM
4T1 = assay: Antitumor activity in mouse 4T1-Luc cells xenografted immunocompetent female mouse assessed as impairment of metastatic growth at 50 mg/kg, po administered every day; type: functional, organism-based
JIMT-1 [28] = assay: Antitumor activity in human JIMT-1 cells xenografted female nude mouse at 2 mg/kg, po administered every other day; type: functional, organism-based
[29] = Toxicity in female nude mouse assessed as organ toxicity at 500 mg/kg, po administered once for 1 to 3 days; type: organism-based; details: in vivo, time 1-3 day
[30] = Toxicity in female nude mouse assessed as body weight at 500 mg/kg, po administered once and measured after 2 days of administration; type: organism-based; details: in vivo, 48 h, time 2 day
[31] = Toxicity in human JIMT-1 cells xenografted female immunodeficient nude mouse assessed as effect on body weight at 5 mg/kg, po administered every other day for 30 days; type: organism-based; details: in vivo, 720 h, time 30 day
[32] = Binding affinity to purified recombinant human TACC3 by isothermal titration calorimetry
JIMT-1 [33] = assay: Induction of mitotic arrest in human JIMT-1 cells assessed as increase in multipolar spindles formation at 200 to 500 nM; type: functional, cell-based; details: dose 200-500 nM
MCF-12A = assay: Antiproliferative activity against human MCF-12A cells; type: functional, cell-based
JIMT-1 [34] = assay: Induction of mitotic arrest in human JIMT-1 cells at 200 nM assessed as change in p-histone H3 levels in presence of Mps1 inhibitor TC Mps1 and measured by Western blot analysis; type: functional, cell-based
JIMT-1 [35] = assay: Induction of mitotic arrest in human JIMT-1 cells assessed as increase in aberrant spindle formation at 200 to 500 nM measured by DAPI staining method; type: functional, cell-based; details: dose 200-500 nM
[36] = Toxicity in female nude mouse assessed as body weight at 500 mg/kg, po administered once and measured after 3 days of administration; type: organism-based; details: in vivo, 72 h, time 3 day
[37] = Toxicity in mouse EMT6 cells xenografted syngeneic Balb/c mouse assessed as animal survival rate measured by Kaplan-Meier plot analysis; details: in vivo
[38] = Toxicity in female nude mouse assessed as body weight at 100 mg/kg, po after 7 days of administration; type: organism-based; details: in vivo, 168 h, time 7 day
[39] = Toxicity in mouse 4T1-Luc cells xenografted immunocompetent female mouse assessed as animal survival at 50 mg/kg, po administered every day; type: organism-based; details: in vivo
[40] = Toxicity in human JIMT-1 cells xenografted female nude mouse assessed as effect on body weight at 25 mg/kg, po administered for 23 days; type: organism-based; details: in vivo, 552 h, time 23 day
JIMT-1 [41] = assay: Inhibition of colony formation in human JIMT-1 cells at 0.1 to 1 uM assessed as decrease in colony number incubated for 12 days by crystal violet staining based assay; type: functional, cell-based; details: dose 0.1-1 µM, time 12.0 day
[42] = Toxicity in female nude mouse assessed as body weight at 100 mg/kg, po after 2 days of administration; type: organism-based; details: in vivo, 48 h, time 2 day
RT-112 [43] = assay: Induction of mitotic arrest in human RT-112 cells assessed as decrease in ERK1/2 phosphorylation at 5 uM measured by western blot analysis; type: functional, cell-based
EMT6 = assay: Antitumor activity in mouse EMT6 xenografted cells syngeneic Balb/c mouse
[44] = Toxicity in female nude mouse assessed as body weight at 100 mg/kg, po after 4 days of administration; type: organism-based; details: in vivo, 96 h, time 4 day
[45] = Toxicity in female nude mouse assessed as body weight at 100 mg/kg, po after 3 days of administration; type: organism-based; details: in vivo, 72 h, time 3 day
RT-112 [46] = assay: Antiproliferative activity against human RT-112 cells after 3 days by SRB assay; type: functional, cell-based; details: RT-112, 72 h

With `COc1ccc(-c2cc(Nc3ccnc(N4CCOCC4)n3)on2)cc1` the Activity (CAL-51) was “Active”, the Activity (JIMT-1 [1]) was “Active” and the Activity [2] was “Non-Toxic”. For the same molecule, the Activity (JIMT-1 [3]) was “Active”, the Activity [4] was 17.4 g and the Activity (HCC1954) was “Active”. The Activity [5] was “Non-Toxic”, the Activity [6] was 16.7 g and the Activity (JIMT-1 [7]) was “Active”. For the same molecule, the Activity (JIMT-1 [8]) was “Active”, the Activity (JIMT-1 [9]) was “Active” and the Activity [10] was “Non-Toxic”. The Activity (JIMT-1 [11]) was “Active”, the IC50 (JIMT-1 [12]) was 120 nM and the IC50 (RT-4) was 3660 nM. For the same molecule, the Activity [13] was “Non-Toxic”, the Activity [14] was 21.1 g and the Activity (MDA-MB-231) was “Active”. For the same molecule, the Activity (JIMT-1 [15]) was “Dose-Dependent Effect”, the solubility kinetic at 2 h [16] was less than 1 µM and the Activity (HCT-116) was “Active”. The Activity [17] was “Non-Toxic”, the Activity (JIMT-1 [18]) was “Dose-Dependent Effect” and the Activity [19] was 1.13%. For the same molecule, the Activity (HCC1143) was “Active”, the Activity (CT26) was “Active” and the Activity (JIMT-1 [20]) was “Dose-Dependent Effect”. The Activity [21] was 16.5 g, the Activity [22] was “Non-Toxic” and the Activity (JIMT-1 [23]) was “Active”. The Activity (JIMT-1 [24]) was “Active”, the Activity (JIMT-1 [25]) was 45.6% and the Activity (JIMT-1 [26]) was “Active”. The Activity (JIMT-1 [27]) was “Dose-Dependent Effect”, the Activity (4T1) was “Active” and the Activity (JIMT-1 [28]) was “Active”. The Activity [29] was “Non-Toxic”, the Activity [30] was 20.9 g and the Activity [31] was “Non-Toxic”. The Kd [32] was 1.5 nM, the Activity (JIMT-1 [33]) was “Active” and the IC50 (MCF-12A) was greater than 10000 nM. For the same molecule, the Activity (JIMT-1 [34]) was “Active”, the Activity (JIMT-1 [35]) was “Active” and the Activity [36] was 21.5 g. For the same molecule, the MSD [37] was 22 days, the Activity [38] was 16.8 g and the MSD [39] was 28 days. The Activity [40] was “Non-Toxic”, the Activity (JIMT-1 [41]) was “Active” and the Activity [42] was 16.2 g. The Activity (RT-112 [43]) was “Active”, the Activity (EMT6) was “Active” and the Activity [44] was 17 g. For the same molecule, the Activity [45] was 16.3 g and the IC50 (RT-112 [46]) was 300 nM.
